Results reported in patent US12145936B1, “7-Imino-5-(1H-indol-3-yl)-1,3-substituted-7,8-dihdropyrimido[4,5-d]pyrimidine-2,4(1H,3H)-dione as anti-inflammatory agents” (KING FAISAL UNIVERSITY, priority 2023, dated 2024).

target: T1, human COX-2 enzyme (Homo sapiens, UniProt P35354); test: Cyclooxygenases (COX-2) enzyme inhibition assay, COX (human) Inhibitor Screening Assay Kit with prostaglandin ELISA readout; type: biochemical; conditions: 10 μM compound, in vitro, ELISA plate incubation 18 hours, read-out: % Inhibition (COX-2) Mean ± SEM
T1 construct: purchased
T1 sequence (P35354 18-604): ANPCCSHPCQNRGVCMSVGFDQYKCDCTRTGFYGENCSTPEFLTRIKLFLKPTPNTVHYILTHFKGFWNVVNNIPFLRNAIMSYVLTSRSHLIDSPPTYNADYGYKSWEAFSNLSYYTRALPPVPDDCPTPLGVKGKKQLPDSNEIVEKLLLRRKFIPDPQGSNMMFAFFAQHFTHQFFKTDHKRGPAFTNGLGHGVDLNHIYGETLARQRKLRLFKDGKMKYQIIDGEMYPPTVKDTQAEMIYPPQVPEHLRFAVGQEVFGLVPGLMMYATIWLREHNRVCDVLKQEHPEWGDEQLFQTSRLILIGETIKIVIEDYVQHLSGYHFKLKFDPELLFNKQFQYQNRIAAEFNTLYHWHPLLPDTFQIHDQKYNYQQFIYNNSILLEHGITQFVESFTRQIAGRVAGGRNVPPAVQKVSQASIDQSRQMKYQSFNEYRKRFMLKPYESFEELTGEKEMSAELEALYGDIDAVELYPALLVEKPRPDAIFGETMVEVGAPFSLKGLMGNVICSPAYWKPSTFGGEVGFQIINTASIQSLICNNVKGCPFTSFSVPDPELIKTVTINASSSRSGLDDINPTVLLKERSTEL
Protocol: According to manufacturer instructions, a COX inhibition assay was performed using COX (human) Inhibitor Screening Assay Kit for the compounds 7-imino-5-(1H-indol-3-yl)-1,3-substituted-7,8-dihydropyrimido[4,5-d]pyrimidine-2,4(1H,3H)-dione derivatives (4a-c). All reagents and buffers were prepared in ultrapure water. All stock solutions of the compounds and the positive controls (Indomethacin and Celecoxib) were dissolved in DMSO. In each inhibitor sample tube, 160 μL reaction buffer, 10 μL of heme, 10 μL of diluted COX-2 enzyme, and 10 μL of the diluted inhibitor was added to get a final concentration of 100 μM. […] 10 μL of the vehicle control (DMSO) was added to the background tubes, and COX enzyme's 100% initial activity was obtained. All reaction tubes were incubated for 10 minutes at 37° C. Following this incubation, 10 μL of the substrate, arachidonic acid (AA), was added to all test tubes, mixed, and further incubated for precisely 30 seconds at 37° C. Then, 30 μL of SnCl2 solution was added to each reaction tube to stop the enzyme catalysis. All reaction tubes were removed from the incubator, vortexed, and incubated again for 5 min at room temperature. Reaction tubes were stored at 4° C. to quantify the prostaglandin formation by competitive enzyme-linked immunosorbent assay (ELISA). ELISA standards were prepared in test tubes to perform the competitive ELISA, and dilutions were prepared with the ELISA buffer. The standards, COX reaction dilutions, and background samples were serially diluted. […] Blank (to assess the background absorbance caused by Ellman's reagent) and total activity (TA) (to determine the enzymatic activity of the AChE-linked tracer) wells were left empty, 100 μL and 50 μL of the ELISA buffer were added to the nonspecific binding (NSB) and maximum binding (B0), respectively. […] Finally, the plate reading was done at a wavelength of 405 nm with a Microplate reader from BioTek (by Agilent), and data were collected using Gen5™ (by Agilent) analysis software. […]

Structure (SMILES) | inhibition at 10 µM [%]
N=c1nc(-c2c[nH]c3ccccc23)c2c(=O)[nH]c(=O)[nH]c2[nH]1 [Compound 4a, 7-Imino-5-(1H-indol-3-yl)-7,8-dihydropyrimido[4,5-d]pyrimidine-2,4(1H,3H)-dione] | 23 ± 5.1
N=c1nc(-c2c[nH]c3ccccc23)c2c(=O)[nH]c(=S)[nH]c2[nH]1 [Compound 4b, 7-Imino-5-(1H-indol-3-yl)-2-thioxo-2,3,7,8-tetrahydropyrimido[4,5-d]pyrimidin-4(1H)-one] | 88 ± 2.91
Cn1c(=O)c2c(-c3c[nH]c4ccccc34)nc(=N)[nH]c2n(C)c1=O [Compound 4c, 7-Imino-5-(1H-indol-3-yl)-1,3-dimethyl-7,8-dihydropyrimido[4,5-d]pyrimidine-2,4(1H,3H)-dione] | 98 ± 1.53
